From BigSolDB 2.1

C[C@@H]1CC[C@H]2[C@@H](C)C(=O)O[C@@H]3O[C@@]4(C)CC[C@@H]1[C@]32OO4
solubility (mole fraction)
Settings | 284.15 K | 289.15 K | 295.15 K | 298.15 K | 304.15 K | 309.15 K | 314.15 K | 319.15 K | 323.15 K
in 2-butanone | 0.0163 | 0.0212 | 0.0292 | 0.0337 | 0.046 | 0.0585 | 0.0762 | 0.0919 | 0.117
in MTBE | 0.00109 | 0.00154 | 0.00234 | 0.00285 | 0.00421 | 0.00579 | 0.0079 | 0.0107 | 0.0136
in acetone | 0.00405 | 0.0053 | 0.0073 | 0.00848 | 0.0115 | 0.0147 | 0.0187 | 0.0236 | 0.0284
in acetonitrile | 0.00084 | 0.00112 | 0.00157 | 0.00184 | 0.00254 | 0.00329 | 0.00424 | 0.00544 | 0.00661
in ethanol | 0.00236 | 0.00305 | 0.00412 | 0.00475 | 0.00631 | 0.00796 | 0.01 | 0.0125 | 0.0149
in ethyl acetate | 0.00557 | 0.00784 | 0.0118 | 0.0142 | 0.0208 | 0.0283 | 0.0383 | 0.0514 | 0.0647
in isopropyl acetate | 0.00683 | 0.00838 | 0.0107 | 0.012 | 0.015 | 0.0182 | 0.0218 | 0.0261 | 0.0301
in methanol | 0.00056 | 0.00078 | 0.00117 | 0.00142 | 0.00207 | 0.00281 | 0.0038 | 0.00508 | 0.00639
in n-butanol | 0.00085 | 0.00127 | 0.00203 | 0.00253 | 0.00394 | 0.00563 | 0.00799 | 0.0112 | 0.0147
in n-heptane | 5.1e-05 | 7.2e-05 | 0.000113 | 0.00013 | 0.000202 | 0.000282 | 0.000383 | 0.000531 | 0.000684
in n-hexane | 5e-05 | 7e-05 | 0.000111 | 0.000132 | 0.000201 | 0.00028 | 0.000381 | 0.000534 | 0.000681
in toluene | 0.017 | 0.0226 | 0.0316 | 0.0369 | 0.0507 | 0.0656 | 0.0843 | 0.108 | 0.131
